± gives the expanded uncertainty stated by the source.
Columns and labels:
[1] = xn = mol fraction of the nth substance listed; conditions: 100 kPa, Liquid, Vibrating tube method
[2] = excess molar enthalpy (molar enthalpy of mixing); xn = mol fraction of the nth substance listed; conditions: 100 kPa, Liquid, Calvet calorimetry

CCCC[N+](C)(C)C.O=S(=O)([N-]S(=O)(=O)C(F)(F)F)C(F)(F)F [butyltrimethylammonium bis(trifluoromethylsulfonyl)imide] + CCO
Conditions	excess molar enthalpy [kcal/mol]	mass density [kg/m3]
[1], 293.15 K, x2 = 0	–	1397.1 ± 5.6
[1], 293.15 K, x2 = 0.1284	–	1379.5 ± 5.5
[1], 293.15 K, x2 = 0.2585	–	1357.1 ± 5.4
[1], 293.15 K, x2 = 0.3814	–	1329.7 ± 5.3
[1], 293.15 K, x2 = 0.5031	–	1293.9 ± 5.2
[1], 293.15 K, x2 = 0.6487	–	1232.1 ± 5
[1], 293.15 K, x2 = 0.7823	–	1142 ± 4.6
[1], 293.15 K, x2 = 0.8561	–	1066.3 ± 4.3
[1], 293.15 K, x2 = 0.8763	–	1040.6 ± 4.2
[1], 293.15 K, x2 = 0.9039	–	1000.1 ± 4
[1], 293.15 K, x2 = 0.95	–	916.4 ± 3.7
[1], 293.15 K, x2 = 0.9745	–	860.2 ± 3.4
[1], 295.15 K, x2 = 0	–	1395.3 ± 5.6
[1], 295.15 K, x2 = 0.1284	–	1377.7 ± 5.5
[1], 295.15 K, x2 = 0.2585	–	1355.3 ± 5.4
[1], 295.15 K, x2 = 0.3814	–	1327.8 ± 5.3
[1], 295.15 K, x2 = 0.5031	–	1292 ± 5.2
[1], 295.15 K, x2 = 0.6487	–	1230.3 ± 4.9
[1], 295.15 K, x2 = 0.7823	–	1140.1 ± 4.6
[1], 295.15 K, x2 = 0.8561	–	1064.5 ± 4.3
[1], 295.15 K, x2 = 0.8763	–	1038.8 ± 4.2
[1], 295.15 K, x2 = 0.9039	–	998.3 ± 4
[1], 295.15 K, x2 = 0.95	–	914.6 ± 3.7
[1], 295.15 K, x2 = 0.9745	–	858.4 ± 3.4
[1], 298.15 K, x2 = 0	–	1392.7 ± 5.6
[1], 298.15 K, x2 = 0.1284	–	1375.1 ± 5.5
[1], 298.15 K, x2 = 0.2585	–	1352.6 ± 5.4
[1], 298.15 K, x2 = 0.3814	–	1325.1 ± 5.3
[1], 298.15 K, x2 = 0.5031	–	1289.3 ± 5.2
[1], 298.15 K, x2 = 0.6487	–	1227.5 ± 4.9
[1], 298.15 K, x2 = 0.7823	–	1137.3 ± 4.6
[1], 298.15 K, x2 = 0.8561	–	1061.7 ± 4.3
[1], 298.15 K, x2 = 0.8763	–	1036 ± 4.2
[1], 298.15 K, x2 = 0.9039	–	995.6 ± 4
[1], 298.15 K, x2 = 0.95	–	911.9 ± 3.7
[1], 298.15 K, x2 = 0.9745	–	855.8 ± 3.4
[1], 303.15 K, x2 = 0	–	1388.3 ± 5.6
[1], 303.15 K, x2 = 0.1284	–	1370.6 ± 5.5
[1], 303.15 K, x2 = 0.2585	–	1348.1 ± 5.4
[1], 303.15 K, x2 = 0.3814	–	1320.6 ± 5.3
[1], 303.15 K, x2 = 0.5031	–	1284.7 ± 5.2
[1], 303.15 K, x2 = 0.6487	–	1222.8 ± 4.9
[1], 303.15 K, x2 = 0.7823	–	1132.7 ± 4.5
[1], 303.15 K, x2 = 0.8561	–	1057.1 ± 4.2
[1], 303.15 K, x2 = 0.8763	–	1031.4 ± 4.1
[1], 303.15 K, x2 = 0.9039	–	991 ± 4
[1], 303.15 K, x2 = 0.95	–	907.4 ± 3.6
[1], 303.15 K, x2 = 0.9745	–	851.4 ± 3.4
[1], 308.15 K, x2 = 0	–	1384 ± 5.6
[1], 308.15 K, x2 = 0.1284	–	1366.2 ± 5.5
[1], 308.15 K, x2 = 0.2585	–	1343.7 ± 5.4
[1], 308.15 K, x2 = 0.3814	–	1316.1 ± 5.3
[1], 308.15 K, x2 = 0.5031	–	1280.1 ± 5.1
[1], 308.15 K, x2 = 0.6487	–	1218.2 ± 4.9
[1], 308.15 K, x2 = 0.7823	–	1128 ± 4.5
[1], 308.15 K, x2 = 0.8561	–	1052.4 ± 4.2
[1], 308.15 K, x2 = 0.8763	–	1026.8 ± 4.1
[1], 308.15 K, x2 = 0.9039	–	986.4 ± 4
[1], 308.15 K, x2 = 0.95	–	902.9 ± 3.6
[1], 308.15 K, x2 = 0.9745	–	846.9 ± 3.4
[1], 313.15 K, x2 = 0	–	1379.6 ± 5.5
[1], 313.15 K, x2 = 0.1284	–	1361.8 ± 5.5
[1], 313.15 K, x2 = 0.2585	–	1339.2 ± 5.4
[1], 313.15 K, x2 = 0.3814	–	1311.6 ± 5.3
[1], 313.15 K, x2 = 0.5031	–	1275.6 ± 5.1
[1], 313.15 K, x2 = 0.6487	–	1213.6 ± 4.9
[1], 313.15 K, x2 = 0.7823	–	1123.3 ± 4.5
[1], 313.15 K, x2 = 0.8561	–	1047.8 ± 4.2
[1], 313.15 K, x2 = 0.8763	–	1022.1 ± 4.1
[1], 313.15 K, x2 = 0.9039	–	981.8 ± 3.9
[1], 313.15 K, x2 = 0.95	–	898.4 ± 3.6
[1], 313.15 K, x2 = 0.9745	–	842.5 ± 3.4
[1], 318.15 K, x2 = 0	–	1375.2 ± 5.5
[1], 318.15 K, x2 = 0.1284	–	1357.4 ± 5.4
[1], 318.15 K, x2 = 0.2585	–	1334.8 ± 5.4
[1], 318.15 K, x2 = 0.3814	–	1307.1 ± 5.2
[1], 318.15 K, x2 = 0.5031	–	1271 ± 5.1
[1], 318.15 K, x2 = 0.6487	–	1209 ± 4.8
[1], 318.15 K, x2 = 0.7823	–	1118.6 ± 4.5
[1], 318.15 K, x2 = 0.8561	–	1043.1 ± 4.2
[1], 318.15 K, x2 = 0.8763	–	1017.4 ± 4.1
[1], 318.15 K, x2 = 0.9039	–	977.1 ± 3.9
[1], 318.15 K, x2 = 0.95	–	893.8 ± 3.6
[1], 318.15 K, x2 = 0.9745	–	838 ± 3.4
[1], 323.15 K, x2 = 0	–	1370.9 ± 5.5
[1], 323.15 K, x2 = 0.1284	–	1353.1 ± 5.4
[1], 323.15 K, x2 = 0.2585	–	1330.4 ± 5.3
[1], 323.15 K, x2 = 0.3814	–	1302.6 ± 5.2
[1], 323.15 K, x2 = 0.5031	–	1266.5 ± 5.1
[1], 323.15 K, x2 = 0.6487	–	1204.4 ± 4.8
[1], 323.15 K, x2 = 0.7823	–	1114 ± 4.5
[1], 323.15 K, x2 = 0.8561	–	1038.4 ± 4.2
[1], 323.15 K, x2 = 0.8763	–	1012.7 ± 4.1
[1], 323.15 K, x2 = 0.9039	–	972.4 ± 3.9
[1], 323.15 K, x2 = 0.95	–	889.2 ± 3.6
[1], 323.15 K, x2 = 0.9745	–	833.4 ± 3.3
[1], 328.15 K, x2 = 0	–	1366.6 ± 5.5
[1], 328.15 K, x2 = 0.1284	–	1348.7 ± 5.4
[1], 328.15 K, x2 = 0.2585	–	1325.9 ± 5.3
[1], 328.15 K, x2 = 0.3814	–	1298.1 ± 5.2
[1], 328.15 K, x2 = 0.5031	–	1261.9 ± 5.1
[1], 328.15 K, x2 = 0.6487	–	1199.7 ± 4.8
[1], 328.15 K, x2 = 0.7823	–	1109.2 ± 4.4
[1], 328.15 K, x2 = 0.8561	–	1033.7 ± 4.1
[1], 328.15 K, x2 = 0.8763	–	1008 ± 4
[1], 328.15 K, x2 = 0.9039	–	967.7 ± 3.9
[1], 328.15 K, x2 = 0.95	–	884.5 ± 3.5
[1], 328.15 K, x2 = 0.9745	–	828.8 ± 3.3
[1], 333.15 K, x2 = 0	–	1362.3 ± 5.5
[1], 333.15 K, x2 = 0.1284	–	1344.3 ± 5.4
[1], 333.15 K, x2 = 0.2585	–	1321.5 ± 5.3
[1], 333.15 K, x2 = 0.3814	–	1293.7 ± 5.2
[1], 333.15 K, x2 = 0.5031	–	1257.4 ± 5
[1], 333.15 K, x2 = 0.6487	–	1195.1 ± 4.8
[1], 333.15 K, x2 = 0.7823	–	1104.5 ± 4.4
[1], 333.15 K, x2 = 0.8561	–	1028.9 ± 4.1
[1], 333.15 K, x2 = 0.8763	–	1003.3 ± 4
[1], 333.15 K, x2 = 0.9039	–	963 ± 3.9
[1], 333.15 K, x2 = 0.95	–	879.8 ± 3.5
[1], 333.15 K, x2 = 0.9745	–	824.2 ± 3.3
[2], 308.15 K, x2 = 0.1229	0.203 ± 0.00837	–
[2], 308.15 K, x2 = 0.2546	0.389 ± 0.0158	–
[2], 308.15 K, x2 = 0.2623	0.396 ± 0.016	–
[2], 308.15 K, x2 = 0.2752	0.411 ± 0.0167	–
[2], 308.15 K, x2 = 0.3943	0.51 ± 0.0208	–
[2], 308.15 K, x2 = 0.5084	0.559 ± 0.0227	–
[2], 308.15 K, x2 = 0.5133	0.551 ± 0.0225	–
[2], 308.15 K, x2 = 0.5408	0.557 ± 0.0227	–
[2], 308.15 K, x2 = 0.6267	0.544 ± 0.0222	–
[2], 308.15 K, x2 = 0.7252	0.509 ± 0.0208	–
[2], 308.15 K, x2 = 0.7354	0.503 ± 0.0206	–
[2], 308.15 K, x2 = 0.7659	0.467 ± 0.0191	–
[2], 308.15 K, x2 = 0.8645	0.352 ± 0.0143	–
[2], 313.15 K, x2 = 0.113	0.187 ± 0.00765	–
[2], 313.15 K, x2 = 0.2393	0.374 ± 0.0153	–
[2], 313.15 K, x2 = 0.2549	0.385 ± 0.0158	–
[2], 313.15 K, x2 = 0.3933	0.518 ± 0.021	–
[2], 313.15 K, x2 = 0.4936	0.569 ± 0.0232	–
[2], 313.15 K, x2 = 0.4959	0.567 ± 0.0232	–
[2], 313.15 K, x2 = 0.499	0.568 ± 0.0232	–
[2], 313.15 K, x2 = 0.6245	0.564 ± 0.0229	–
[2], 313.15 K, x2 = 0.7406	0.507 ± 0.0206	–
[2], 313.15 K, x2 = 0.8666	0.369 ± 0.0151	–
[2], 323.15 K, x2 = 0.1187	0.185 ± 0.00765	–
[2], 323.15 K, x2 = 0.2569	0.406 ± 0.0165	–
[2], 323.15 K, x2 = 0.2694	0.422 ± 0.0172	–
[2], 323.15 K, x2 = 0.3969	0.538 ± 0.022	–
[2], 323.15 K, x2 = 0.527	0.6 ± 0.0239	–
[2], 323.15 K, x2 = 0.5431	0.611 ± 0.0239	–
[2], 323.15 K, x2 = 0.6214	0.598 ± 0.0239	–
[2], 323.15 K, x2 = 0.7499	0.548 ± 0.0222	–
[2], 323.15 K, x2 = 0.8707	0.413 ± 0.0167	–
